{"source": "patent US11498923B2", "about": "(Merck Sharp & Dohme Corp., priority 2017, dated 2022)", "data": [{"molecular_target": "T1, human A2a receptor (Homo sapiens, UniProt P29274)", "T1 construct": "purchased Perkin-Elmer RBHA2AM400UA; host or cells: HEK293 cells, used as a membrane preparation", "T1 sequence (P29274 whole entry)": "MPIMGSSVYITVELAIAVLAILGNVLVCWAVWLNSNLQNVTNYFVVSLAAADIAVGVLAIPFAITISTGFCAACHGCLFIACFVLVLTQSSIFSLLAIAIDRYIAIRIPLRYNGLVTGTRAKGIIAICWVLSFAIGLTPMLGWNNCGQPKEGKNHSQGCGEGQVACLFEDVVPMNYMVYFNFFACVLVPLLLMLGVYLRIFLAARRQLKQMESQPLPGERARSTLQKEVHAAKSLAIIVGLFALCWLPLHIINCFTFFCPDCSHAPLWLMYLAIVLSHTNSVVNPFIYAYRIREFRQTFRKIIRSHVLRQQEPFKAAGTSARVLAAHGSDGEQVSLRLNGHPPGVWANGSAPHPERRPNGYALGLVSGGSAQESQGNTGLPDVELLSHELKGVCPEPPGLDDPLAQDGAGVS", "test": "A2a receptor competition binding assay (Scintillation Proximity)", "details": "membranes from HEK293 cells expressing human A2a receptor; 0.5 nM tritiated ligand; Cheng-Prusoff; read-out: A2a Ki", "outline": "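Ki values were obtained with the Cheng-Prusoff equation from competition curves against 0.5 nM tritiated antagonist, scintillation proximity counting after 1 h room-temperature incubation. Receptor came from HEK293 membranes pretreated with adenosine deaminase; compound final range 3000–0.15 nM, buffer Ca/Mg-free PBS with 10 mM MgCl2.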", "units": {"Ki": "nM"}, "values": [{"compound": "Nc1nc2c(F)cccc2c2nc(CN3CCN(Cc4ccccc4)CC3)cn12", "note": "[Ex-111, 2-((4-benzylpiperazin-1-yl)methyl)-7-fluoroimidazo[1,2-c]quinazolin-5-amine]", "Ki": 160}, {"compound": "CCN1CCN(Cc2cn3c(N)nc4c(F)cccc4c3n2)CC1", "note": "[Ex-112, 2-((4-ethylpiperazin-1-yl)methyl)-7-fluoroimidazo[1,2-c]quinazolin-5-amine]", "Ki": 520}, {"compound": "Nc1nc2c(F)cccc2c2nc(CN3CCN(CCc4ccccc4)CC3)cn12", "note": "[Ex-113, 7-fluoro-2-((4-phenethylpiperazin-1-yl)methyl)imidazo-[1,2-c]quinazolin-5-amine]", "Ki": 76}, {"compound": "Nc1nc2c(F)cccc2c2nc(CN3CCC(Cc4ccccc4)CC3)cn12", "note": "[Ex-114, 2-((4-benzylpiperidin-1-yl)methyl)-7-fluoroimidazo[1,2-c]quinazolin-5-amine]", "Ki": 130}, {"compound": "Nc1nc2c(F)cccc2c2nc(CN3CCOCC3)cn12", "note": "[Ex-115, 7-fluoro-2-(morpholinomethyl) imidazo[1,2-c] quinazolin-5-amine]", "Ki": 380}, {"compound": "Nc1nc2ccccc2c2nc(CN3CCN(c4ccc(F)cc4F)CC3)cn12", "note": "[Ex-116, 2-((4-(2,4-difluorophenyl)piperazin-1-yl)methyl) imidazo[1,2-c] quinazolin-5-amine]", "Ki": 1000}, {"compound": "Nc1nc2c(F)cccc2c2nc(CN3CCOc4ccccc43)cn12", "note": "[Ex-117, 2-((2,3-dihydro-4H-benzo[b][1,4]oxazin-4-yl)methyl)-7-fluoroimidazo[1,2-c]quinazolin-5-amine]", "Ki": 4}, {"compound": "Nc1nc2c(F)cccc2c2nc(CN3CCOc4cccnc43)cn12", "note": "[Ex-118, 2-((2,3-dihydro-4H-pyrido[3,2-b][1,4]oxazin-4-yl)methyl)-7-fluoroimidazo[1,2-c]quinazolin-5-amine]", "Ki": 3.9}, {"compound": "Nc1nc2c(F)cccc2c2nc(CN3CCCN(c4ccccn4)CC3)cn12", "note": "[Ex-119, 7-fluoro-2-((4-(pyridin-2-yl)-1,4-diazepan-1-yl)methyl)imidazo[1,2-c]quinazolin-5-amine]", "Ki": 210}, {"compound": "COc1cccc2c1nc(N)n1cc(CN3CCc4cccnc4C3)nc21", "note": "[Ex-120, 2-((5,8-dihydro-1,7-naphthyridin-7(6H)-yl)methyl)-7-methoxyimidazo[1,2-c]quinazolin-5-amine]", "Ki": 4.2}, {"compound": "COc1cccc2c1nc(N)n1cc(CN3CCc4ccccc4C3)nc21", "note": "[Ex-121, 2-((3,4-dihydroisoquinolin-2(1H)-yl)methyl)-7-methoxyimidazo[1,2-c]quinazolin-5-amine]", "Ki": 3.7}, {"compound": "COc1cccc2c1nc(N)n1cc(CN3Cc4cccnc4C3)nc21", "note": "[Ex-122, 2-((5,7-dihydro-6H-pyrrolo[3,4-b]pyridin-6-yl)methyl)-7-methoxyimidazo[1,2-c]quinazolin-5-amine]", "Ki": 11}, {"compound": "COc1cccc2c1nc(N)n1cc(CN3Cc4ccc(F)cc4C3)nc21", "note": "[Ex-123, 2-((5-fluoroisoindolin-2-yl)methyl)-7-methoxyimidazo[1,2-c]quinazolin-5-amine]", "Ki": 9.2}, {"compound": "Nc1nc2c(F)cccc2c2nc(CN3Cc4ccc(F)cc4C3)cn12", "note": "[Ex-124, 7-fluoro-2-((5-fluoroisoindolin-2-yl)methyl)imidazo[1,2-c]quinazolin-5-amine]", "Ki": 18}, {"compound": "Nc1nc2c(F)cccc2c2nc(CN3CCCc4cc(Br)ccc43)cn12", "note": "[Ex-125, 2-((6-bromo-3,4-dihydroquinolin-1(2H)-yl)methyl)-7-fluoroimidazo[1,2-c]quinazolin-5-amine]", "Ki": 8.1}, {"compound": "Nc1nc2c(F)cccc2c2nc(CN3Cc4ccc(Br)cc4C3)cn12", "note": "[Ex-126, 2-((5-bromoisoindolin-2-yl)methyl)-7-fluoroimidazo[1,2-c]quinazolin-5-amine]", "Ki": 38}, {"compound": "Nc1nc2c(F)cccc2c2nc(CN3CCc4cc(NC(=O)c5ccccn5)ccc4C3)cn12", "note": "[Ex-127, N-(2-((5-amino-7-fluoroimidazo[1,2-c]quinazolin-2-yl)methyl)-1,2,3,4-tetrahydroisoquinolin-6-yl)picolinamide]", "Ki": 64}, {"compound": "CC(=O)Nc1ccc2c(c1)CCN(Cc1cn3c(N)nc4c(F)cccc4c3n1)C2", "note": "[Ex-128, N-(2-((5-amino-7-fluoroimidazo[1,2-c]quinazolin-2-yl)methyl)-1,2,3,4-tetrahydroisoquinolin-6-yl)acetamide]", "Ki": 97}, {"compound": "Nc1nc2c(F)cccc2c2nc(CN3CCc4cc(CC(=O)Nc5ccccn5)ccc4C3)cn12", "note": "[Ex-129, 2-(2-((5-amino-7-fluoroimidazo[1,2-c]quinazolin-2-yl)methyl)-1,2,3,4-tetrahydroisoquinolin-6-yl)-N-(pyridin-2-yl)acetamide]", "Ki": 51}, {"compound": "Nc1nc2c(F)cccc2c2nc(CN3CCc4cc(-c5ccc(F)c(F)c5)ccc4C3)cn12", "note": "[Ex-130, 2-((6-(3,4-difluorophenyl)-3,4-dihydroisoquinolin-2(1H)-yl)methyl)-7-fluoroimidazo[1,2-c]quinazolin-5-amine]", "Ki": 46}, {"compound": "Nc1nc2c(F)cccc2c2nc(CN3CCc4ccc(CC(=O)Nc5ccccn5)cc4C3)cn12", "note": "[Ex-131, 2-(2-((5-amino-7-fluoroimidazo[1,2-c]quinazolin-2-yl)methyl)-1,2,3,4-tetrahydroisoquinolin-7-yl)-N-(pyridin-2-yl)acetamide]", "Ki": 8.4}, {"compound": "COc1cccc2c1nc(N)n1cc(CN3CCN4CCCC[C@@H]4C3)nc21", "note": "[Ex-132, (R)-7-methoxy-2-((octahydro-2H-pyrido[1,2-a]pyrazin-2-yl)methyl)imidazo[1,2-c]quinazolin-5-amine]", "Ki": 150}, {"compound": "COc1cccc2c1nc(N)n1cc(CN3CCc4ccc(-c5cncnc5)cc4C3)nc21", "note": "[Ex-134]", "Ki": 7.9}, {"compound": "COc1cccc2c1nc(N)n1cc(CN3CCc4ccc(-c5ccc(F)c(F)c5)cc4C3)nc21", "note": "[Ex-135, 2-((7-(3,4-difluorophenyl)-3,4-dihydroisoquinolin-2(1H)-yl)methyl)-7-methoxyimidazo[1,2-c]quinazolin-5-amine]", "Ki": 10.4}, {"compound": "Nc1nc2c(F)cccc2c2nc(CN3CCN(C(=O)Cc4ccccn4)c4ccccc43)cn12", "note": "[Ex-136, 1-(4-((5-amino-7-fluoroimidazo[1,2-c]quinazolin-2-yl)methyl)-3,4-dihydroquinoxalin-1(2H)-yl)-2-(pyridin-2-yl)ethan-1-one]", "Ki": 12}, {"compound": "COc1cccc2c1nc(N)n1cc(CCN3Cc4cccnc4C3)nc21", "note": "[Ex-137, 2-(2-(5,7-dihydro-6H-pyrrolo[3,4-b]pyridin-6-yl)ethyl)-7-methoxyimidazo[1,2-c]quinazolin-5-amine]", "Ki": 13.1}, {"compound": "Nc1nc2c(F)cccc2c2nc(CCN3CCN(c4ccccn4)CC3)cn12", "note": "[Ex-138]", "Ki": 28}, {"compound": "Nc1nc2c(Br)cccc2c2nc(CNCc3ccccc3)cn12", "note": "[Ex-140, 2-((benzylamino)methyl)-7-bromoimidazo[1,2-c]quinazolin-5-amine]", "Ki": 9.1}, {"compound": "Nc1nc2c(Br)cccc2c2nc(CNCc3cccnc3)cn12", "note": "[Ex-141, 7-bromo-2-(((pyridin-3-ylmethyl)amino)methyl) imidazo[1,2-c]quinazolin-5-amine]", "Ki": 9.5}, {"compound": "Nc1nc2c(F)cccc2c2nc(CNCc3ccc(F)cc3)cn12", "note": "[Ex-142]", "Ki": 130}, {"compound": "COc1cccc2c1nc(N)n1cc(CNCc3ccccc3)nc21", "note": "[Ex-143, 2-((benzylamino)-methyl)-7-methoxy-imidazo[1,2-c]-quinazolin-5-amine]", "Ki": 4}, {"compound": "COc1cccc2c1nc(N)n1cc(CN3CC(c4cccc(Cl)c4)C3)nc21", "note": "[Ex-144, 2-((3-(3-chlorophenyl)azetidin-1-yl)methyl)-7-methoxyimidazo[1,2-c]quinazolin-5-amine]", "Ki": 13}, {"compound": "COc1cccc2c1nc(N)n1cc(CNCc3cccnc3)nc21", "note": "[Ex-145, 7-methoxy-2-(((pyridin-3-ylmethyl)amino)methyl)imidazo [1,2-c]quinazolin-5-amine]", "Ki": 28}, {"compound": "Nc1nc2c(F)cccc2c2nc(COc3ccccc3)cn12", "note": "[Ex-146, 7-fluoro-2-(phenoxymethyl)imidazo[1,2-c]quinazolin-5-amine]", "Ki": 33}, {"compound": "COc1cccc(OCc2cn3c(N)nc4c(F)cccc4c3n2)c1", "note": "[Ex-147]", "Ki": 54}, {"compound": "CCn1cc(-c2cccc3c2nc(N)n2cc(Cc4ccccc4)nc32)cn1", "note": "[Ex-150, 2-benzyl-7-(1-ethyl-1H-pyrazol-4-yl)imidazo[1,2-c]quinazolin-5-amine]", "Ki": 760}, {"compound": "CCn1cc(-c2cccc3c2nc(N)n2cc(CN(C)Cc4cccc(Cl)c4)nc32)cn1", "note": "[Ex-151, 2-(((3-chlorobenzyl)-(methyl)amino)-methyl)-7-(1-ethyl-1H-pyrazol-4-yl)imidazo[1,2-c]-quinazolin-5-amine]", "Ki": "> 2200"}, {"compound": "Cc1noc(C)c1-c1cccc2c1nc(N)n1cc(Cc3ccccc3)nc21", "note": "[Ex-152]", "Ki": 35}, {"compound": "Cc1noc(C)c1-c1cccc2c1nc(N)n1cc(CNCc3ccccc3)nc21", "note": "[Ex-153, 2-((benzylamino)-methyl)-7-(3,5-dimethyl-isoxazol-4-yl)-imidazo[1,2-c]-quinazolin-5-amine]", "Ki": "> 2200"}, {"compound": "Cc1noc(C)c1-c1cccc2c1nc(N)n1cc(Cc3ccc(F)cc3)nc21", "note": "[Ex-154, 7-(3,5-dimethylisoxazol-4-yl)-2-(4-fluorobenzyl)imidazo[1,2-c]quinazolin-5-amine]", "Ki": 48}, {"compound": "Cc1cc(Cc2cn3c(N)nc4c(-c5c(C)noc5C)cccc4c3n2)ccn1", "note": "[Ex-155, 7-(3,5-dimethylisoxazol-4-yl)-2-((2-methylpyridin-4-yl)methyl)imidazo[1,2-c]quinazolin-5-amine]", "Ki": 130}, {"compound": "Nc1nc2c(-c3cnoc3)cccc2c2nc(Cc3ccccc3)cn12", "note": "[Ex-156, 2-benzyl-7-(isoxazol-4-yl)imidazo[1,2-c]quinazolin-5-amine]", "Ki": 28}, {"compound": "COc1cccc2c1nc(N)n1cc(C(=O)NCc3cccc4cccnc34)nc21", "note": "[Ex-157, 5-amino-7-methoxy-N-(quinolin-8-ylmethyl)imidazo[1,2-c]quinazoline-2-carboxamide]", "Ki": 1.5}, {"compound": "Nc1nc2ccccc2c2nc(C(=O)NCc3ccc(F)cc3F)cn12", "note": "[Ex-158, 5-amino-N-(2,4-difluorobenzyl)imidazo[1,2-c]quinazoline-2-carboxamide]", "Ki": 33.9}]}]}
